These results are taken from patent US20230346743A1, “COMBINATION CANCER THERAPIES” (The Board of Regents of the University of Oklahoma, priority 2018, published 2023).

The test system of series [1] is Mycobacterium bovis BCG. The following applies: Table of Brown et al., 2004; cited from earlier work.
For series [2], the system named is MESOV human ovarian cancer cells. Put plainly: Tumor establishment after intraperitoneal injection of MESOV cells (secondary chemoprevention model). The format is in vivo. The settings on record: nu/nu mice, MESOV i.p. The protocol:
Four-week-old female athymic nude mice (NCr-Foxn1^nu) were obtained from Taconic Biosciences under an approved Institutional Animal Care and Use Committee (IACUC) protocol. Mice were acclimatized for two weeks, fed with a standard diet and ear tagged during the acclimatization period. The timing to tumor development after intraperitoneal injection with various amounts of MESOV cells was determined in a pilot study prior. In the intervention experiment, 6-week-old mice were injected with 20 million MESOV human ovarian cancer cells in their intraperitoneal region. Drug treatment was initiated 4 weeks after the injection of cancer cells. Mice were randomized to four treatment groups before the start of treatment based on their body weight. There was no significant (one-way ANOVA, p >0.999) difference in body weight between groups at the start of treatment. Twelve mice were allocated to each group based on the power analysis performed while designing experiment. […] Controls were gavaged with Kolliphor HS15 (30% in water). […] (10 mg/kg) was dissolved in phosphate buffered saline and injected into the peritoneum of mice every other day. Initially SHetA2 dosing was administered every day for two weeks in SHetA2 alone and drug combination groups, and then switched to every other day for the next three weeks due to the stress caused to the mice by daily gavage. Oral gavaging was performed with sterile disposable plastic feeding tubes 20 ga × 38 mm (Instech Laboratories, Inc., Plymouth Meeting, PA, USA). Three mice in the drug combination group died after two weeks of drug treatment due to gavaging incidents. Body weights were recorded and animal health was monitored weekly. After the end of drug intervention period, all mice were euthanized by CO2 asphyxiation followed by exsanguination, their tumors and other vital organs were collected for further analysis. After measuring the total tumor weight, a portion of the tumors were snap frozen in liquid nitrogen and another portion was formalin fixed. The formalin fixed tissue samples were paraffin embedded, sectioned and stained with hematoxylin and eosins for histology studies. An experienced pathologist reviewed blinded histology slides for kidney and liver toxicity. Presence or absence of tumor at the end of the treatment period was used as the primary outcome measure. […] Two by two logistic regression was used to compare the four treatment groups (Untreated control, SHetA2, […] combination) in the study. Mice in the first 3 groups had complete data, while 3 mice in the combo group died early and had zero tumor weights. […]

The test system of series [3] is R282W m-p53. Put plainly: P53 luciferase reporter assay in MESOV cells. It counts as cell-based, human. The settings on record: 60 µM PRIMA-1^MET, 24 h. The procedure: To determine the transcriptional activity of p53, MESOV cells were transfected with PG13-Luc plasmids. Approximately 5,000 transfected cells were seeded on to each well of 96-well plate and incubated overnight. These cells were treated with either control solvent, 5 µM SHetA2 or 60 µM PRIMA-1^MET for 24 h. Luciferase activity of the reporter was measured with the One-glo luciferase reporter assay kit (Promega, Madison, WI, USA) and a Biotek Synergy H1 plate reader (BioteK, Winooski, VT, USA). The MTT assay was performed in parallel cultures and used to normalize the p53 reporter activity to the amount of viable cells.

The conditions of series [4]: infusion in cancer patients; cited from earlier work.
Series [5] can be described thus: Toxicity in the MESOV mouse model (body weight, ascites, kidney and liver histology). It counts as in vivo. The protocol: Four-week-old female athymic nude mice (NCr-Foxn1^nu) were obtained from Taconic Biosciences under an approved Institutional Animal Care and Use Committee (IACUC) protocol. Mice were acclimatized for two weeks, fed with a standard diet and ear tagged during the acclimatization period. The timing to tumor development after intraperitoneal injection with various amounts of MESOV cells was determined in a pilot study prior. In the intervention experiment, 6-week-old mice were injected with 20 million MESOV human ovarian cancer cells in their intraperitoneal region. Drug treatment was initiated 4 weeks after the injection of cancer cells. Mice were randomized to four treatment groups before the start of treatment based on their body weight. There was no significant (one-way ANOVA, p >0.999) difference in body weight between groups at the start of treatment. Twelve mice were allocated to each group based on the power analysis performed while designing experiment. The sample size was determined to provide over 80% power to detect a 915 mm^3 difference in tumor volume between PRIMA-1^MET treatment alone and the drug combination treatment using a two-sided 0.05 level t-test. SHetA2 was administered by gavage at 60 mg/kg in 30% Kolliphor HS15 (Sigma). Controls were gavaged with Kolliphor HS15 (30% in water). PRIMA-1^MET (10 mg/kg) was dissolved in phosphate buffered saline and injected into the peritoneum of mice every other day. Initially SHetA2 dosing was administered every day for two weeks in SHetA2 alone and drug combination groups, and then switched to every other day for the next three weeks due to the stress caused to the mice by daily gavage. Oral gavaging was performed with sterile disposable plastic feeding tubes 20 ga × 38 mm (Instech Laboratories, Inc., Plymouth Meeting, PA, USA). Three mice in the drug combination group died after two weeks of drug treatment due to gavaging incidents. Body weights were recorded and animal health was monitored weekly. After the end of drug intervention period, all mice were euthanized by CO2 asphyxiation followed by exsanguination, their tumors and other vital organs were collected for further analysis. After measuring the total tumor weight, a portion of the tumors were snap frozen in liquid nitrogen and another portion was formalin fixed. The formalin fixed tissue samples were paraffin embedded, sectioned and stained with hematoxylin and eosins for histology studies. An experienced pathologist reviewed blinded histology slides for kidney and liver toxicity.

Series [6] has as its system Cervical Cancer. Put plainly: Dose reduction index at various fold effects in cervical cancer. It counts as cell-based, human. Set-up: Palbociclib Dose: unit not given beside the values. The settings on record: cell line not named. From the text: Combination Indices (CI's) were derived to determine the level of synergy using the Chow and Talalay method. […] The Dose Reduction Indices (DRIs) were derived to determine the level of reduction for one drug that could be allowed by addition of the second drug at various fold effects (Fas) of the combination treatment (Table 16).

In series [7] the test system is TP21 gene. Kind of series: qRT-PCR of TP21 in SKOV3 cells. It counts as cell-based, human. The settings on record: SKOV3 parental (p53 null) and R273H m-p53 cells; SHetA2 10 µM, PRIMA-1 20 µM, 16 h. On the technique in general: Quantitative PCR measures a nucleic acid by following its amplification.
The test system of series [8] is p21. Kind of series: Western blots of p21 in ovarian cancer cell lines. It counts as cell-based, human. The following applies: A2780, SKOV3, SKOV3 R273H, SKOV3 R248W. The procedure:
Proteins were extracted from cell cultures using M-PER mammalian protein extraction reagent (ThermoFisher, Waltham, MA, USA) and volumes corresponding to 30 µg determined with BCA reagent (ThermoFisher, Waltham, MA, USA) were electrophoresed into a SDS-PAGE gel and transferred to PVDF membranes. Membranes were blocked (5% dry skim milk powder in TBST buffer) for at least 1 h or overnight, washed thrice with TBST and then incubated with primary antibody: p53 DO-1, β-actin, histone H3, GAPDH (Santa Cruz Biotechnology, Dallas, TX, USA) and mortalin, Tom20, V5 tag antibodies, p21, PARP, SLC7A11, caspase 3 (Cell Signaling Technology, Danvers, MA, USA) for at least 1 h or overnight. After three washes, membranes were incubated with anti-mouse HRP conjugated (Santa Cruz Biotechnology, Dallas, TX, USA) or anti-Rabbit HRP conjugated (Cell Signaling Technology, Danvers, MA, USA) for 40 min. Membranes then were washed and developed with ECL reagents (BioRad, Hercules, CA, USA). Bands were imaged and quantified (ChemiDoc imaging system with Image Lab Software/BioRad).

For series [9], the system named is SKOV3 R273H. Kind of series: MTT cytotoxicity assay. It counts as cell-based. The following applies: Homo sapiens, SK-OV-3; SKOV3 permanently transfected with R273H m-p53, MTT. The procedure:
Cells plated at 2000 cells/well in 96 well microtiter plates were incubated for 36-48 h and treated with a range of doses and combinations of SHetA2 and PRIMA-1 or PRIMA-1^MET, or the same volume of DMSO solvent for 72 h of incubation. The percentage of growth for single drug treatments or fold effect (1 - ratio of treated/untreated growth) was measured using the CellTiter 96 AQueous Non-Radioactive Cell Proliferation Assay (Promega, Madison, WI, USA) and the BioTeK SYNERGY H1 (BioTeK, Winooski, VT, USA). Each experiment was performed in triplicate and repeated 2-3 times.
The potencies (IC50′s) of SHetA2 or PRIMA-1 were determined using GraphPad Prism 6 software analysis of average MTT Optical Density vs drug dose. […] Single drug treatments at doses surrounding the IC50 values were evaluated parallel. All treatments were performed in triplicate and averages used to draw isobolograms and calculate combination indices (CI) and dose-reduction indices (DRIs) using CompuSyn Software according to the Chou and Talalay method (op cit). All experiments were repeated at least twice for each cell line to confirm results.

Series [10] deals with parental SKOV-3 cells. Kind of series: MTT cytotoxicity assay. The format is cell-based, human. The following applies: parental SKOV-3 p53 null cells.

The IC50 is the concentration at which inhibition is half-maximal.

For `CCOC(=O)c1ccc(NC(=O)Nc2ccc3c(c2)C(C)=CC(C)(C)N3C)cc1`, the “range” value in series [1] is recorded as 20.0-40.0. On to `COc1ccc2c(c1NC(=S)Nc1ccc([N+](=O)[O-])cc1)C(C)(C)COC2(C)C`, for which, in series [1], the “range” value is recorded as 20.0-40.0. As to `COC(=O)c1ccc(C(=O)Oc2ccc3c(c2)OC(C)(C)C=C3C)cc1`, in series [1], the “range” value is given as 2.0-4.0. On to `COc1ccc2c(c1NC(=S)NC(=O)c1ccc([N+](=O)[O-])cc1)C(C)(C)COC2(C)C`, for which the “range” value in [1] was 20.0-40.0.

Turning to `CCOC(=O)c1ccc(NC(=O)Nc2ccc3c(c2)C(C)(C)CC(C)(C)S3)cc1`, in [1], the “range” value is 20.0-40.0. On to `CC1(C)CC(C)(C)c2cc(NC(=S)Nc3ccc([N+](=O)[O-])cc3)ccc2O1`, for which, in [1], the “range” value is 20.0-40.0. With `CCOC(=O)c1ccc(NC(=S)Nc2ccc3c(c2)C(C)(C)CC(C)(C)O3)cc1`, the “range” value in series [1] is 5.0-10.0. Take `CC1(C)CC(C)(C)c2cccc(NC(=S)Nc3ccc([N+](=O)[O-])cc3)c2O1`: in [1], the “range” value is reported as 20.0-40.0. As for `CCOC(=O)c1ccc(NC(=O)Nc2cccc3c2OC(C)(C)CC3(C)C)cc1`, in [1], the “range” value is given as 20.0-40.0. As for `CCOC(=O)c1ccc(NC(=O)Nc2ccc3c(c2)C(C)(C)CC(C)(C)O3)cc1`, the “range” value in [1] was 20.0-40.0. On to `CC(C)CCOc1ccc(NC(=S)Nc2ccc(OCCC(C)C)cc2)cc1`, for which the “range” value in [1] is on record as 0.5-1.0. For the compound `CCOC(=O)c1ccc(NC(=S)Nc2ccc3c(c2)C(C)(C)CC(C)(C)S3)cc1`, in [1], the “range” value was 20.0-40.0. `COCC1(CO)C(=O)C2CCN1CC2` (stereo not shown) [PRIMA-1^MET, 2-(hydroxymethyl)-2-(methoxymethyl)-1-azabicyclo [2.2.2]octan-3-one]: the “OR for preventing tumor development (additive logistic regression model)” value in series [2] is 4.464. For the same compound, in [2] (SHetA2 60 mg/kg gavage, PRIMA-1^MET 10 mg/kg i.p., treatment from day 28 for 38 days), the Tumor-free rates is 25%. In series [3], the “p53 transcriptional activity (PG13-Luc reporter)” value was “reactivation of R282W m-p53 in MESOV was observed”. Moreover, the Clinical safety result in series [4] is listed as “relatively safe with fully reversible central nervous system-related side effects”. Also, in [5] (mouse, in vivo, ip), the “Kidney or liver toxicity (H & E histology)” value is given as “did not cause kidney or liver toxicity”. In [5] (nu/nu mice, MESOV i.p.), the “Average body weights compared with mock group” value is reported as “significantly higher than the mock group” and the “Effects on body weight or ascites (abdominal size)” value is listed as “no significant effects on body weight or ascites”. As to `CC1=CC(C)(C)N(C)c2ccc(NC(=S)Nc3ccc([N+](=O)[O-])cc3)cc21`, the “range” value in series [1] is recorded as 20.0-40.0. As for `CCOC(=O)c1ccc(NC(=S)Nc2ccc3c(c2)C(C)=CC(C)(C)N3C)cc1`, the “range” value in [1] is 20.0-40.0. For the compound `CCOC(=O)c1ccc(NC(=S)Nc2cccc3c2OC(C)(C)CC3(C)C)cc1`, in series [1], the “range” value was 20.0-40.0. As to `CC(=C/C=N/NC(N)=S)/C=C/c1ccc2c(c1)C(C)CC(C)(C)N2C` (stereo not shown), the “range” value in [1] is reported as 10.0-20.0. Take `CC(=O)c1c(C)c2cnc(Nc3ccc(N4CCNCC4)cn3)nc2n(C2CCCC2)c1=O` [Palbociclib, reference compound]: the “Palbociclib Dose” value stood at 7.16 in [6] (Fold Effect (Fa) 0.05), 24.03 in series [6] (Fold Effect (Fa) 0.75), 80.72 in series [6] (Fold Effect (Fa) 0.90) and 184.00 in series [6] (Fold Effect (Fa) 0.95). Take `O=C1C2CCN(CC2)C1(CO)CO` [PRIMA-1, 2,2-Bishydroxymethyl-1-azabicyclo[2.2.2]octan-3-one, reference compound]: the “TP21 transcription (qRT-PCR)” value in series [7] was “did not induce TP21 transcription”. Also, in [8], the “p21 protein (Western blot)” value was “only induced p21 protein expression in A2780 (wt p53)”. For the same compound, the 50% inhibitory concentration (IC50) in series [9] amounted to 40 µM. Further, the PRIMA-1 sensitivity entry in series [10] is recorded as “resistant”.
